{"source": "ChEMBL document CHEMBL1143477", "about": "“Camptothecin binds to a synthetic peptide identified by a T7 phage display screen” (Bioorg Med Chem Lett, 2005)", "key": {"[1]": {"test": "Dissociation constant for binding of camptothecin to the synthetic peptide NSSQSARR by surface plasmon resonance (SPR) method after compound dissolved in 10 % DMSO at 25 degree C"}, "[2]": {"test": "Dissociation constant for binding of camptothecin to the synthetic peptide NSSQSARR by using quartz-crystal microbalance (QCM) method after compound dissolved in 10 % DMSO at 25 degree C"}}}
{"compound": "CC[C@@]1(O)C(=O)OCc2c1cc1n(c2=O)Cc2cc3ccccc3nc2-1", "note": "[CAMPTOTHECIN]", "values": [{"measurement": "Kd", "setting": "[1]", "result": 112, "unit": "nM"}, {"measurement": "Kd", "setting": "[2]", "result": 94, "unit": "nM"}]}
